Assays:
Assay in all cases: Kinase inhibitor library screening, PrestoBlue cell viability, 1 or 10 μM, 72 h
[1] = tested on: A375-GP cells (Dabrafenib-resistant); settings: A375 GP
501Mel cells (parental) = settings: 501Mel Parental
How it was run: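 Parental cells and Vemurafenib-resistant (XP) or Dabrafenib-resistant (GP) derivatives were treated with library kinase inhibitors at 1 and 10 μM for 72 h. Viability measured by PrestoBlue and expressed as % of untreated cells, at least in duplicate.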

[2] = tested on: IGR37-XP cells (Vemurafenib-resistant); settings: IGR37 XP
[3] = tested on: 501Mel-GP cells (Dabrafenib-resistant); settings: 501Mel GP
IGR37 cells (parental) = settings: IGR37 Parental
A375 cells (parental) = settings: A375 Parental
[4] = tested on: A375-XP cells (Vemurafenib-resistant); settings: A375 XP
[5] = tested on: 501Mel-XP cells (Vemurafenib-resistant); settings: 501Mel XP
[6] = tested on: IGR37-GP cells (Dabrafenib-resistant); settings: IGR37 GP

CN1CCN(CCOc2cc(OC3CCOCC3)c3c(Nc4c(Cl)ccc5c4OCO5)ncnc3c2)CC1 [Saracatinib (AZD0530)]
cell viability (kinase inhibitor library screening) ([1]; 1μΜ, in %): 81.5
cell viability (kinase inhibitor library screening) ([1]; 10μΜ, in %): 56.9
cell viability (kinase inhibitor library screening) (501Mel cells (parental); 1μΜ, in %): 105.0
cell viability (kinase inhibitor library screening) ([2]; 1μΜ, in %): 97.3
cell viability (kinase inhibitor library screening) ([2]; 10μΜ, in %): 61.7
cell viability (kinase inhibitor library screening) ([3]; 1μΜ, in %): 100.5
cell viability (kinase inhibitor library screening) ([3]; 10μΜ, in %): 90.5
cell viability (kinase inhibitor library screening) (IGR37 cells (parental); 10μΜ, in %): 96.3
cell viability (kinase inhibitor library screening) (A375 cells (parental); 1μΜ, in %): 92.2
cell viability (kinase inhibitor library screening) (A375 cells (parental); 10μΜ, in %): 71.5
cell viability (kinase inhibitor library screening) ([4]; 1μΜ, in %): 92.8
cell viability (kinase inhibitor library screening) ([4]; 10μΜ, in %): 71.3
cell viability (kinase inhibitor library screening) ([5]; 1μΜ, in %): 95.7
cell viability (kinase inhibitor library screening) ([5]; 10μΜ, in %): 79.4
cell viability (kinase inhibitor library screening) ([6]; 1μΜ, in %): 96.8
cell viability (kinase inhibitor library screening) ([6]; 10μΜ, in %): 77.9

Cc1cc(C(C)Nc2ccccc2)c2nc(N3CCOCC3)cc(=O)n2c1 (stereo not shown) [TGX-221]
Cell viability in kinase inhibitor library screening, A375 GP, 1μΜ ([1]; 1μΜ, 72 h): 95.9
Cell viability in kinase inhibitor library screening, A375 GP, 10μΜ ([1]; 10μΜ, 72 h): 91.3
Cell viability in kinase inhibitor library screening, 501Mel Parental, 1μΜ (501Mel cells (parental); 1μΜ, 72 h, in %): 99.4
Cell viability in kinase inhibitor library screening, 501Mel Parental, 10μΜ (501Mel cells (parental); 10μΜ, 72 h, in %): 97.1
Cell viability in kinase inhibitor library screening, IGR37 XP, 10μΜ ([2]; 10μΜ, 72 h): 61.6%
Cell viability in kinase inhibitor library screening, IGR37 XP, 1μΜ ([2]; 1μΜ, 72 h, in %): 95.0
Cell viability in kinase inhibitor library screening, 501Mel GP, 1μΜ ([3]; 1μΜ, 72 h, in %): 102.9
Cell viability in kinase inhibitor library screening, 501Mel GP, 10μΜ ([3]; 10μΜ, 72 h, in %): 78.5
Cell viability in kinase inhibitor library screening, IGR37 Parental, 1μΜ (IGR37 cells (parental); 1μΜ, 72 h, in %): 97.4
Cell viability in kinase inhibitor library screening, IGR37 Parental, 10μΜ (IGR37 cells (parental); 10μΜ, 72 h, in %): 96.6
Cell viability in kinase inhibitor library screening, A375 Parental, 10μΜ (A375 cells (parental); 10μΜ, 72 h): 94.9
Cell viability in kinase inhibitor library screening, A375 Parental, 1μΜ (A375 cells (parental); 1μΜ, 72 h): 103.0
Cell viability in kinase inhibitor library screening, A375 XP, 1μΜ ([4]; 1μΜ, 72 h): 107.8
Cell viability in kinase inhibitor library screening, A375 XP, 10μΜ ([4]; 10μΜ, 72 h): 99.8
Cell viability in kinase inhibitor library screening, 501Mel XP, 1μΜ ([5]; 1μΜ, 72 h, in %): 92.5
Cell viability in kinase inhibitor library screening, 501Mel XP, 10μΜ ([5]; 10μΜ, 72 h, in %): 67.8
Cell viability in kinase inhibitor library screening, IGR37 GP, 10μΜ ([6]; 10μΜ, 72 h): 85.9%
Cell viability in kinase inhibitor library screening, IGR37 GP, 1μΜ ([6]; 1μΜ, 72 h, in %): 93.0

CNC(=O)c1cc(Oc2ccc(NC(=O)Nc3ccc(Cl)c(C(F)(F)F)c3)cc2)ccn1 [Sorafenib (Nexavar)]
cell viability (kinase inhibitor library screening) ([1]; 1μΜ, in %): 80.9
cell viability (kinase inhibitor library screening) ([1]; 10μΜ, in %): 22.0
cell viability (kinase inhibitor library screening) (501Mel cells (parental); 1μΜ, in %): 97.8
cell viability (kinase inhibitor library screening) (501Mel cells (parental); 10μΜ, in %): 53.0
cell viability (kinase inhibitor library screening) ([2]; 1μΜ, in %): 106.1
cell viability (kinase inhibitor library screening) ([2]; 10μΜ, in %): 16.7
cell viability (kinase inhibitor library screening) ([3]; 1μΜ, in %): 104.7
cell viability (kinase inhibitor library screening) (IGR37 cells (parental); 1μΜ, in %): 96.8
cell viability (kinase inhibitor library screening) (IGR37 cells (parental); 10μΜ, in %): 60.6
cell viability (kinase inhibitor library screening) (A375 cells (parental); 10μΜ, in %): 44.5
cell viability (kinase inhibitor library screening) ([4]; 1μΜ, in %): 95.0
cell viability (kinase inhibitor library screening) ([4]; 10μΜ, in %): 16.4
cell viability (kinase inhibitor library screening) ([5]; 1μΜ, in %): 96.9
cell viability (kinase inhibitor library screening) ([5]; 10μΜ, in %): 23.2
cell viability (kinase inhibitor library screening) ([6]; 1μΜ, in %): 102.7
cell viability (kinase inhibitor library screening) ([6]; 10μΜ, in %): 41.3

Nc1nccc(Oc2ccc(NC(=O)c3c[nH]cc(-c4ccc(F)cc4)c3=O)cc2F)c1Cl [BMS 794833]
cell viability (kinase inhibitor library screening) ([1]; 10μΜ, 72 h): 85.8%
cell viability (kinase inhibitor library screening) (501Mel cells (parental); 1μΜ, 72 h): 95.9%
cell viability (kinase inhibitor library screening) (501Mel cells (parental); 10μΜ, 72 h): 83.2%
cell viability (kinase inhibitor library screening) ([2]; 1μΜ, 72 h): 103.7%
cell viability (kinase inhibitor library screening) ([2]; 10μΜ, 72 h): 63.5%
cell viability (kinase inhibitor library screening) ([3]; 1μΜ, 72 h): 90.0%
cell viability (kinase inhibitor library screening) ([3]; 10μΜ, 72 h): 70.5%
cell viability (kinase inhibitor library screening) (IGR37 cells (parental); 1μΜ, 72 h): 106.3%
cell viability (kinase inhibitor library screening) (IGR37 cells (parental); 10μΜ, 72 h): 97.3%
cell viability (kinase inhibitor library screening) (A375 cells (parental); 10μΜ, 72 h): 63.8%
cell viability (kinase inhibitor library screening) ([4]; 1μΜ, 72 h): 104.8%
cell viability (kinase inhibitor library screening) ([4]; 10μΜ, 72 h): 96.9%
cell viability (kinase inhibitor library screening) ([5]; 1μΜ, 72 h): 91.8%
cell viability (kinase inhibitor library screening) ([5]; 10μΜ, 72 h): 52.9%
cell viability (kinase inhibitor library screening) ([6]; 1μΜ, 72 h): 94.1%
cell viability (kinase inhibitor library screening) ([6]; 10μΜ, 72 h): 90.1%

COc1cc(N2CCC(N3CCN(C)CC3)CC2)ccc1Nc1ncc(Cl)c(Nc2ccccc2S(=O)(=O)C(C)C)n1 [TAE684 (NVP-TAE684)]
cell viability (kinase inhibitor library screening) ([1]; 1μΜ, 72 h): 61.5%
cell viability (kinase inhibitor library screening) ([1]; 10μΜ, 72 h): 8.3%
cell viability (kinase inhibitor library screening) (501Mel cells (parental); 1μΜ, 72 h): 103.2%
cell viability (kinase inhibitor library screening) (501Mel cells (parental); 10μΜ, 72 h): 0.331%
cell viability (kinase inhibitor library screening) ([2]; 1μΜ, 72 h): 67.8%
cell viability (kinase inhibitor library screening) ([2]; 10μΜ, 72 h): 1.0%
cell viability (kinase inhibitor library screening) ([3]; 1μΜ, 72 h): 112.8%
cell viability (kinase inhibitor library screening) ([3]; 10μΜ, 72 h): -0.0599%
cell viability (kinase inhibitor library screening) (IGR37 cells (parental); 1μΜ, 72 h): 99.2%
cell viability (kinase inhibitor library screening) (IGR37 cells (parental); 10μΜ, 72 h): 4.4%
cell viability (kinase inhibitor library screening) (A375 cells (parental); 10μΜ, 72 h): 8.8%
cell viability (kinase inhibitor library screening) (A375 cells (parental); 1μΜ, 72 h): 76.3%
cell viability (kinase inhibitor library screening) ([4]; 1μΜ, 72 h): 72.8%
cell viability (kinase inhibitor library screening) ([4]; 10μΜ, 72 h): 13.8%
cell viability (kinase inhibitor library screening) ([5]; 10μΜ, 72 h): -0.231%
cell viability (kinase inhibitor library screening) ([6]; 1μΜ, 72 h): 84.1%
cell viability (kinase inhibitor library screening) ([6]; 10μΜ, 72 h): 1.7%

N#C/C(=C\c1ccc(O)c(O)c1)C(=O)NCc1ccccc1 [AG-490]
cell viability, A375 GP, 10μΜ ([1]; 10μΜ, 72 h, in %): 88.5
cell viability, 501Mel Parental, 1μΜ (501Mel cells (parental); 1μΜ, 72 h, in %): 99.1
cell viability, 501Mel Parental, 10μΜ (501Mel cells (parental); 10μΜ, 72 h, in %): 92.7
cell viability, IGR37 XP, 10μΜ ([2]; 10μΜ, 72 h): 70.7%
cell viability, IGR37 XP, 1μΜ ([2]; 1μΜ, 72 h, in %): 104.5
cell viability, 501Mel GP, 1μΜ ([3]; 1μΜ, 72 h, in %): 105.8
cell viability, 501Mel GP, 10μΜ ([3]; 10μΜ, 72 h, in %): 86.5
cell viability, IGR37 Parental, 1μΜ (IGR37 cells (parental); 1μΜ, 72 h, in %): 105.9
cell viability, A375 Parental, 10μΜ (A375 cells (parental); 10μΜ, 72 h, in %): 88.6
cell viability, A375 XP, 1μΜ ([4]; 1μΜ, 72 h, in %): 99.9
cell viability, A375 XP, 10μΜ ([4]; 10μΜ, 72 h, in %): 91.1
cell viability, 501Mel XP, 1μΜ ([5]; 1μΜ, 72 h, in %): 93.1
cell viability, 501Mel XP, 10μΜ ([5]; 10μΜ, 72 h, in %): 79.3
cell viability, IGR37 GP, 10μΜ ([6]; 10μΜ, 72 h): 88.3%

CNC(=O)c1nn(C)c2c1C(C)(C)Cc1cnc(Nc3ccc(N4CCN(C)CC4)cc3)nc1-2 [PHA-848125]
cell viability (kinase inhibitor library screening) ([1]; 1μΜ, 72 h): 57.9%
cell viability (kinase inhibitor library screening) ([1]; 10μΜ, 72 h): 4.3%
cell viability (kinase inhibitor library screening) (501Mel cells (parental); 1μΜ, 72 h): 75.4%
cell viability (kinase inhibitor library screening) (501Mel cells (parental); 10μΜ, 72 h): 14.7%
cell viability (kinase inhibitor library screening) ([2]; 1μΜ, 72 h): 75.2%
cell viability (kinase inhibitor library screening) ([2]; 10μΜ, 72 h): 31.7%
cell viability (kinase inhibitor library screening) ([3]; 1μΜ, 72 h): 63.8%
cell viability (kinase inhibitor library screening) ([3]; 10μΜ, 72 h): 28.1%
cell viability (kinase inhibitor library screening) (IGR37 cells (parental); 1μΜ, 72 h): 95.1%
cell viability (kinase inhibitor library screening) (IGR37 cells (parental); 10μΜ, 72 h): 70.2%
cell viability (kinase inhibitor library screening) (A375 cells (parental); 10μΜ, 72 h): 5.7%
cell viability (kinase inhibitor library screening) (A375 cells (parental); 1μΜ, 72 h): 56.7%
cell viability (kinase inhibitor library screening) ([4]; 1μΜ, 72 h): 66.4%
cell viability (kinase inhibitor library screening) ([4]; 10μΜ, 72 h): 7.5%
cell viability (kinase inhibitor library screening) ([5]; 1μΜ, 72 h): 75.1%
cell viability (kinase inhibitor library screening) ([5]; 10μΜ, 72 h): 14.5%
cell viability (kinase inhibitor library screening) ([6]; 1μΜ, 72 h): 78.8%
cell viability (kinase inhibitor library screening) ([6]; 10μΜ, 72 h): 66.9%

Reference: paper PMC6364417, “Kinase inhibitor library screening identifies synergistic drug combinations effective in sensitive and resistant melanoma cells” (Journal of Experimental & Clinical Cancer Research : CR, 2019)
